Test results published in patent US11572398B2, “GLP-1 derivatives and uses thereof” (Novo Nordisk A/S, priority 2014, dated 2023).
Read-outs that look alike come from different tables or passages of the source.

Columns and labels:
human GLP-1 receptor [1] = target: T1, human GLP-1 receptor (Homo sapiens, UniProt P43220); assay: In vitro potency: CRE luciferase reporter gene assay in BHK cells expressing the human GLP-1 receptor; format: cell-based
T1 construct: expressed in transfected cells; host or cells: BHK cells (parent line BHKTS13), clone FCW467-12A; membrane preparation
Summary of the method: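 Whole-cell assay in stably transfected BHK cells carrying CRE-driven firefly luciferase, 5×10^3 cells/well, in assay buffer with 2% ovalbumin and 0.2% Pluronic F-68. Compound working solutions were 0.2 μM.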

human GLP-1 receptor [2] = target: T1, human GLP-1 receptor; assay: GLP-1 receptor binding: competitive binding assay (125I-GLP-1, SPA) on isolated membranes at low and high HSA
[3] = Pharmacokinetic study in minipigs (i.v.); conditions: male, Göttingen, minipig, in vivo, iv
Method: The purpose of this study is to determine the protraction in vivo of the GLP-1 derivatives after i.v. administration to minipigs, i.e. the prolongation of their time in the body and thereby their time of action. This is done in a pharmacokinetic (PK) study, where the terminal half-life of the derivative in question is determined. By terminal half-life is meant the time it takes to halve a certain plasma concentration in the terminal elimination phase.
Male Göttingen minipigs were obtained from Ellegaard Göttingen Minipigs (Dalmose, Denmark) approximately 7-14 months of age and weighing approximately 16-35 kg were used in the studies. The minipigs were housed either individually (pigs with permanent catheters) or in a group and fed restrictedly once or twice daily with SDS minipig diet (Special Diets Services, Essex, UK).
After at least 2 weeks of acclimatisation two permanent central venous catheters were implanted in vena cava caudalis or cranialis in each animal. The animals were allowed 1 week recovery after the surgery, and were then used for repeated pharmacokinetic studies with a suitable wash-out period between successive GLP-1 derivative dosings.
Blood samples (for example 0.8 ml) were collected in EDTA buffer (8 mM) and then centrifuged at 4° C. and 1942G for 10 minutes.
Plasma was pipetted into Micronic tubes on dry ice, and kept at −20° C. until analysed for plasma concentration of the respective GLP-1 compound using LOCI. Individual plasma concentration-time profiles were analyzed by a non-compartmental pharmacokinetic method in Phoenix v. 6.2 (Pharsight Inc., Mountain View, Calif., USA), or other relevant software for PK analysis, and the resulting terminal half-lives (harmonic mean) determined.

[4] = Low HSA IC50, low HSA (max. 0.001% final assay concentration)
[5] = whole cell reporter gene assay, BHK cells, human GLP-1 receptor, average of at least two replicates, read-out: EC50
[6] = high HSA (2.0% final assay concentration), read-out: High HSA IC50

T1 sequence (P43220 24-463): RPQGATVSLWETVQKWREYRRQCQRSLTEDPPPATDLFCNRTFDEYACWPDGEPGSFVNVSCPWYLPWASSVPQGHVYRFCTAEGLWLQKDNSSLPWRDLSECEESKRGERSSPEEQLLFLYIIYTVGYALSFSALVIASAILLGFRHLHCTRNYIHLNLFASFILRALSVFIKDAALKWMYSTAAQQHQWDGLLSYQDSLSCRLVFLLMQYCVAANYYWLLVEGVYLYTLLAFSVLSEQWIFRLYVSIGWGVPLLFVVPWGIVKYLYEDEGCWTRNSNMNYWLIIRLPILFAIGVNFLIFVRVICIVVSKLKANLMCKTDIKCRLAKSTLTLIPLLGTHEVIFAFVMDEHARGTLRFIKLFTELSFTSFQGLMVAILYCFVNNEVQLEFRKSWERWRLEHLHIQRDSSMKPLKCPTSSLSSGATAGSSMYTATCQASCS

| Compound | EC50 (human GLP-1 receptor [1]) | IC50 (human GLP-1 receptor [2]; High HSA IC50, high HSA (2.0% final assay concentration)) | IC50 (human GLP-1 receptor [2]; [4]) | half-life ([3]; 5 nmol/kg) | EC50 (human GLP-1 receptor [1]; [5]) | IC50 (human GLP-1 receptor [2]; [6]) | half-life ([3]; 2 nmol/kg) |
| --- | --- | --- | --- | --- | --- | --- | --- |
| CC[C@H](C)[C@H](NC(=O)[C@H](Cc1ccccc1)NC(=O)[C@H](CCC(=O)O)NC(=O)[C@H](CCCNC(=N)N)NC(=O)[C@H](C)NC(=O)[C@H](C)NC(=O)[C@H](CCC(N)=O)NC(=O)[C@H](CCC(=O)O)NC(=O)[C@H](CCC(=O)O)NC(=O)[C@H](CC(C)C)NC(=O)[C@H](Cc1ccc(O)cc1)NC(=O)[C@H](CO)NC(=O)[C@H](CO)NC(=O)[C@@H](NC(=O)[C@H](CC(=O)O)NC(=O)[C@H](CO)NC(=O)[C@@H](NC(=O)[C@H](Cc1ccccc1)NC(=O)[C@@H](NC(=O)CNC(=O)[C@H](CCC(=O)O)NC(=O)C(C)(C)NC(=O)[C@@H](N)Cc1c[nH]cn1)[C@@H](C)O)[C@@H](C)O)C(C)C)C(=O)N[C@@H](C)C(=O)N[C@@H](Cc1c[nH]c2ccccc12)C(=O)N[C@@H](CC(C)C)C(=O)N[C@H](C(=O)N[C@@H](CCCNC(=N)N)C(=O)NCC(=O)N[C@@H](CCCNC(=N)N)C(=O)N[C@@H](CCCCNC(=O)CN(CCCNC(=O)COCCOCCNC(=O)COCCOCCNC(=O)COCCOCCNC(=O)COCCOCCNC(=O)COCCOCCNC(=O)[C@@H](N)CCCCNC(=O)[C@@H](N)CCCCNC(=O)CCCNC(=O)CCCCCCCCCCCCCCCS(=O)(=O)O)CCCNC(=O)COCCOCCNC(=O)COCCOCCNC(=O)COCCOCCNC(=O)COCCOCCNC(=O)COCCOCCNC(=O)[C@@H](N)CCCCNC(=O)[C@@H](N)CCCCNC(=O)CCCNC(=O)CCCCCCCCCCCCCCCS(=O)(=O)O)C(=O)O)C(C)C [Example 9, N{Epsilon-37}-[2-[bis[3-[[2-[2-[2-[[2-[2-[2-[[2-[2-[2-[[2-[2-[2-[[2-[2-[2-[[(2S)-2-amino-6-[[(2S)-2-amino-6-[4-(16-sulfohexadecanoylamino)butanoylamino]hexanoyl]amino]hexanoyl]amino]ethoxy]ethoxy]acetyl]amino]ethoxy]ethoxy]acetyl]amino]ethoxy]ethoxy]acetyl]amino]ethoxy]ethoxy]acetyl]amino]ethoxy]ethoxy]acetyl]amino]propyl]amino]acetyl]-[Aib8,Glu22,Arg26,Arg34,Lys37]-GLP-1-(7-37)-peptide] | 0.0016 nM | 29 nM | 0.16 nM | 104 h | – | – | – |
| CC[C@H](C)[C@H](NC(=O)[C@H](Cc1ccccc1)NC(=O)[C@H](CCC(=O)O)NC(=O)[C@H](CCCNC(=N)N)NC(=O)[C@H](C)NC(=O)[C@H](C)NC(=O)[C@H](CCC(N)=O)NC(=O)[C@H](CCC(=O)O)NC(=O)[C@H](CCC(=O)O)NC(=O)[C@H](CC(C)C)NC(=O)[C@H](Cc1ccc(O)cc1)NC(=O)[C@H](CO)NC(=O)[C@H](CO)NC(=O)[C@@H](NC(=O)[C@H](CC(=O)O)NC(=O)[C@H](CO)NC(=O)[C@@H](NC(=O)[C@H](Cc1ccccc1)NC(=O)[C@@H](NC(=O)CNC(=O)[C@H](CCC(=O)O)NC(=O)C(C)(C)NC(=O)[C@@H](N)Cc1c[nH]cn1)[C@@H](C)O)[C@@H](C)O)C(C)C)C(=O)N[C@@H](C)C(=O)N[C@@H](Cc1c[nH]c2ccccc12)C(=O)N[C@@H](CC(C)C)C(=O)N[C@H](C(=O)N[C@@H](CCCNC(=N)N)C(=O)NCC(=O)N[C@@H](CCCNC(=N)N)C(=O)N[C@@H](CCCCNC(=O)COCCOCCNC(=O)COCCOCCNC(=O)CN(CCCNC(=O)COCCOCCNC(=O)COCCOCCNC(=O)COCCOCCNC(=O)COCCOCCNC(=O)CC[C@H](NC(=O)[C@H]1CC[C@H](CNC(=O)CCCCCCCCCCCCCCCCCCC(=O)O)CC1)C(=O)O)CCCNC(=O)COCCOCCNC(=O)COCCOCCNC(=O)COCCOCCNC(=O)COCCOCCNC(=O)CC[C@H](NC(=O)[C@H]1CC[C@H](CNC(=O)CCCCCCCCCCCCCCCCCCC(=O)O)CC1)C(=O)O)C(=O)O)C(C)C [Example 11] | – | – | 0.35 nM | – | 0.017 nM | 33 nM | 160 h |
| CC[C@H](C)[C@H](NC(=O)[C@H](Cc1ccccc1)NC(=O)[C@H](CCC(=O)O)NC(=O)[C@H](CCCNC(=N)N)NC(=O)[C@H](C)NC(=O)[C@H](C)NC(=O)[C@H](CCC(N)=O)NC(=O)[C@H](CCC(=O)O)NC(=O)[C@H](CCC(=O)O)NC(=O)[C@H](CC(C)C)NC(=O)[C@H](Cc1ccc(O)cc1)NC(=O)[C@H](CO)NC(=O)[C@H](CO)NC(=O)[C@@H](NC(=O)[C@H](CC(=O)O)NC(=O)[C@H](CO)NC(=O)[C@@H](NC(=O)[C@H](Cc1ccccc1)NC(=O)[C@@H](NC(=O)CNC(=O)[C@H](CCC(=O)O)NC(=O)C(C)(C)NC(=O)[C@@H](N)Cc1c[nH]cn1)[C@@H](C)O)[C@@H](C)O)C(C)C)C(=O)N[C@@H](C)C(=O)N[C@@H](Cc1c[nH]c2ccccc12)C(=O)N[C@@H](CC(C)C)C(=O)N[C@H](C(=O)N[C@@H](CCCNC(=N)N)C(=O)NCC(=O)N[C@@H](CCCNC(=N)N)C(=O)N[C@@H](CCCCNC(=O)COCCOCCNC(=O)COCCOCCNC(=O)COCCOCCNC(=O)COCCOCCNC(=O)CN(CCCNC(=O)COCCOCCNC(=O)COCCOCCNC(=O)CC[C@H](NC(=O)[C@H]1CC[C@H](CNC(=O)CCCCCCCCCCCCCCCCCCC(=O)O)CC1)C(=O)O)CCCNC(=O)COCCOCCNC(=O)COCCOCCNC(=O)CC[C@H](NC(=O)[C@H]1CC[C@H](CNC(=O)CCCCCCCCCCCCCCCCCCC(=O)O)CC1)C(=O)O)C(=O)O)C(C)C [Example 12] | – | – | 0.51 nM | – | 0.02 nM | 25 nM | 137 h |
